This note sets out measurements from ChEMBL document CHEMBL3813659 (Bioorg Med Chem, 2016).

For experiment [1], the target named is T1, Oxytocin receptor (Homo sapiens) (UniProt P30559).
T1 sequence (whole entry): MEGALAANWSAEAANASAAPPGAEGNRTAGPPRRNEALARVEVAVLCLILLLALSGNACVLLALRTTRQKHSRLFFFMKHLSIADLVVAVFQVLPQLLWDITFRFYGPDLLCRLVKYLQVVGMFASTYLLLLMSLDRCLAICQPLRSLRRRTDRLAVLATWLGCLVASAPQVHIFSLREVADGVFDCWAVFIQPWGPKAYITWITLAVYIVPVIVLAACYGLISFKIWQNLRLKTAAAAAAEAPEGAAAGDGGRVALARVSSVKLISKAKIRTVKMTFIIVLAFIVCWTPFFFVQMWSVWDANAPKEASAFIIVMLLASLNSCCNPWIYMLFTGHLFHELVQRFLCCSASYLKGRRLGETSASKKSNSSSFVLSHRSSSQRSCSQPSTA
As to the kind of experiment: Intrinsic agonist activity at human oxytocin receptor expressed in CHO cells assessed as increase in intracellular calcium flux measured for 90 sec by fluo-4 dye based FLIPR assay relative to control. It is filed as functional, cell-based. For orientation: Calcium assays in cells follow changes in intracellular calcium, usually with a dye or a luminescent sensor.

Experiment [2] has as its target T2, Oxytocin receptor (Homo sapiens, UniProt P30559).
T2 sequence (P30559 whole entry): T1 sequence (whole entry)
As to the kind of experiment: Agonist activity at human oxytocin receptor expressed in CHO cells assessed as increase in intracellular calcium flux measured for 90 sec by fluo-4 dye based FLIPR assay. The class given is functional, cell-based.

Experiment [3] has as its target T2, Oxytocin receptor. As to the kind of experiment: Displacement of [3H]8-arginine-vasopressin from human oxytocin receptor expressed in CHO cell membrane incubated for 1 hr by liquid scintillation counting method. The class given is cell membranes. (Loss of bound radioactivity is the signal in a displacement assay; it reports binding, not function.)

pEC50, pKi: −log10 of the molar value.

A word on the pEC50: it is the EC50 on a negative log10 scale, so that one unit is a factor of ten. In the case of `CC[C@H](C)[C@@H]1NC(=O)[C@H](Cc2ccc(O)cc2)NC(=O)CCSSC[C@@H](C(=O)N2CCC[C@H]2C(=O)N(C)[C@@H](CC(C)C)C(=O)N(C)CC(N)=O)NC(=O)[C@H](CC(N)=O)NC(=O)[C@H](CCC(N)=O)NC1=O`, the Intrinsic activity in experiment [1] was found to be 86%. For the same molecule, on Oxytocin receptor [2], the pEC50 is 9.23.
Broadly, the pKi is the Ki on a negative log10 scale, so that one unit is a factor of ten. For the molecule `CC[C@H](C)[C@@H]1NC(=O)[C@H](Cc2ccc(O)cc2)NC(=O)[C@@H](NC)CSSC[C@@H](C(=O)N2CCC[C@H]2C(=O)N[C@@H](CC(C)C)C(=O)NCC(N)=O)NC(=O)[C@H](CC(N)=O)NC(=O)[C@H](CCC(N)=O)NC1=O`, the Intrinsic activity in experiment [1] was 102%. The same molecule gave a pKi on Oxytocin receptor [3] of 8.26. In addition, on Oxytocin receptor [2], the pEC50 was 8.32.
Regarding `CC[C@H](C)[C@@H]1NC(=O)[C@H](Cc2ccc(O)cc2)NC(=O)[C@@H](N)CSSC[C@@H](C(=O)N2CCC[C@H]2C(=O)N[C@@H](CC(C)C)C(=O)NCC(N)=O)NC(=O)[C@H](CC(N)=O)NC(=O)[C@H](CCC(N)=O)N(C)C1=O`, at Oxytocin receptor [3], the pKi is below 6.00. Further, at Oxytocin receptor [2], the pEC50 was below 6.00.
Regarding `CC[C@H](C)[C@@H]1NC(=O)[C@H](Cc2ccc(O)cc2)NC(=O)[C@@H](N)CSSC[C@@H](C(=O)N2CCC[C@H]2C(=O)N(C)[C@@H](CC(C)C)C(=O)NCC(N)=O)NC(=O)[C@H](CC(N)=O)NC(=O)[C@H](CCC(N)=O)NC1=O`, in experiment [1], the Intrinsic activity came out at 97%. On Oxytocin receptor [3], this molecule had a pKi of 9.01. The pEC50 on Oxytocin receptor [2] was 9.28.
For `CC[C@H](C)[C@@H]1NC(=O)[C@H](Cc2ccc(O)cc2)NC(=O)CCSSC[C@@H](C(=O)N2CCC[C@H]2C(=O)N[C@@H](CC(C)C)C(=O)N(C)CC(N)=O)N(C)C(=O)[C@H](CC(N)=O)NC(=O)[C@H](CCC(N)=O)NC1=O`, the Intrinsic activity in experiment [1] came to 84%. For the same molecule, the pEC50 at Oxytocin receptor [2] is 8.62.
The corresponding values for `CC[C@H](C)[C@H]1C(=O)N[C@@H](CCC(N)=O)C(=O)N[C@@H](CC(N)=O)C(=O)N(C)[C@H](C(=O)N2CCC[C@H]2C(=O)N[C@@H](CC(C)C)C(=O)NCC(N)=O)CSSC[C@H](N)C(=O)N[C@@H](Cc2ccc(O)cc2)C(=O)N1C` are 94% and 6.55.
Take `CC[C@H](C)[C@@H]1NC(=O)[C@H](Cc2ccc(O)cc2)NC(=O)[C@@H](N)CSSC[C@@H](C(=O)N2CCC[C@H]2C(=O)N[C@@H](CC(C)C)C(=O)NCC(N)=O)NC(=O)[C@H](CC(N)=O)NC(=O)[C@H](CCC(N)=O)NC1=O`: the Intrinsic activity in experiment [1] was 102%.
For `CC[C@H](C)[C@@H]1NC(=O)[C@H](Cc2ccc(O)cc2)NC(=O)CCSSC[C@@H](C(=O)N2CCC[C@H]2C(=O)N(C)[C@@H](CC(C)C)C(=O)NCC(N)=O)N(C)C(=O)[C@H](CC(N)=O)NC(=O)[C@H](CCC(N)=O)NC1=O`, in experiment [1], the Intrinsic activity is 86%. Besides, the pEC50 at Oxytocin receptor [2] was 8.37.
In the case of `CC[C@H](C)[C@H]1C(=O)N[C@@H](CCC(N)=O)C(=O)N[C@@H](CC(N)=O)C(=O)N(C)[C@H](C(=O)N2CCC[C@H]2C(=O)N[C@@H](CC(C)C)C(=O)NCC(N)=O)CSSCCC(=O)N[C@@H](Cc2ccc(O)cc2)C(=O)N1C`, the pEC50 at Oxytocin receptor [2] is below 6.00.
On to `CC[C@H](C)[C@@H]1NC(=O)[C@H](Cc2ccc(O)cc2)N(C)C(=O)[C@@H](N)CSSC[C@@H](C(=O)N2CCC[C@H]2C(=O)N[C@@H](CC(C)C)C(=O)NCC(N)=O)NC(=O)[C@H](CC(N)=O)NC(=O)[C@H](CCC(N)=O)NC1=O`, for which the Intrinsic activity in experiment [1] was found to be 98%. At Oxytocin receptor [3], this molecule had a pKi of 8.17. At Oxytocin receptor [2], the pEC50 was 7.62.
In the case of `CC[C@H](C)[C@@H]1NC(=O)[C@H](Cc2ccc(O)cc2)NC(=O)[C@@H](N)CSSC[C@@H](C(=O)N2CCC[C@H]2C(=O)N(C)[C@@H](CC(C)C)C(=O)NCC(N)=O)N(C)C(=O)[C@H](CC(N)=O)NC(=O)[C@H](CCC(N)=O)NC1=O`, the Intrinsic activity in experiment [1] is 83%. This molecule had a pKi on Oxytocin receptor [3] of 7.16. Besides, the pEC50 at Oxytocin receptor [2] is 7.81.
For `CC[C@H](C)[C@@H]1NC(=O)[C@H](Cc2ccc(O)cc2)NC(=O)[C@@H](N)CSSC[C@@H](C(=O)N2CCC[C@H]2C(=O)N[C@@H](CC(C)C)C(=O)N(C)CC(N)=O)NC(=O)[C@H](CC(N)=O)NC(=O)[C@H](CCC(N)=O)NC1=O`, in that order: 102%, 8.88 and 9.33.
Regarding `CC[C@H](C)[C@@H]1NC(=O)[C@H](Cc2ccc(O)cc2)NC(=O)[C@@H](N)CSSC[C@@H](C(=O)N2CCC[C@H]2C(=O)N[C@@H](CC(C)C)C(=O)NCC(N)=O)NC(=O)[C@H](CC(N)=O)N(C)C(=O)[C@H](CCC(N)=O)NC1=O`, in experiment [1], the Intrinsic activity amounted to 100%. This molecule also had a pKi on Oxytocin receptor [3] of 7.50. Further, the pEC50 on Oxytocin receptor [2] is 7.59.
Turning to `CC[C@H](C)[C@@H]1NC(=O)[C@H](Cc2ccc(O)cc2)NC(=O)CCSSC[C@@H](C(=O)N2CCC[C@H]2C(=O)N[C@@H](CC(C)C)C(=O)NCC(N)=O)NC(=O)[C@H](CC(N)=O)NC(=O)[C@H](CCC(N)=O)NC1=O`, in experiment [1], the Intrinsic activity was 106%. On Oxytocin receptor [3], this molecule gave a pKi of 9.48.
Regarding `CC[C@H](C)[C@@H]1NC(=O)[C@H](Cc2ccc(O)cc2)NC(=O)[C@@H](N)CSSC[C@@H](C(=O)N2CCC[C@H]2C(=O)N[C@@H](CC(C)C)C(=O)N(C)CC(N)=O)N(C)C(=O)[C@H](CC(N)=O)NC(=O)[C@H](CCC(N)=O)NC1=O`, in experiment [1], the Intrinsic activity stood at 90%. This molecule also gave a pKi on Oxytocin receptor [3] of 7.47. The negative logarithm of the EC50 (pEC50) on Oxytocin receptor [2] is 7.97.
For `CC[C@H](C)[C@@H]1NC(=O)[C@H](Cc2ccc(O)cc2)NC(=O)[C@@H](N)CSSC[C@@H](C(=O)N2CCC[C@H]2C(=O)N[C@@H](CC(C)C)C(=O)NCC(N)=O)N(C)C(=O)[C@H](CC(N)=O)NC(=O)[C@H](CCC(N)=O)NC1=O`, in that order: 95%, 8.98 and 9.00.
With `CC[C@H](C)[C@@H]1NC(=O)[C@H](Cc2ccc(O)cc2)NC(=O)CCSSC[C@@H](C(=O)N2CCC[C@H]2C(=O)N[C@@H](CC(C)C)C(=O)NCC(N)=O)N(C)C(=O)[C@H](CC(N)=O)NC(=O)[C@H](CCC(N)=O)NC1=O`, the Intrinsic activity in experiment [1] is 84%. In addition, the pEC50 at Oxytocin receptor [2] was 9.54.
For `CC[C@H](C)[C@H]1C(=O)N[C@@H](CCC(N)=O)C(=O)N[C@@H](CC(N)=O)C(=O)N[C@H](C(=O)N2CCC[C@H]2C(=O)N[C@@H](CC(C)C)C(=O)NCC(N)=O)CSSC[C@H](N)C(=O)N[C@@H](Cc2ccc(O)cc2)C(=O)N1C`, the Intrinsic activity in experiment [1] was determined as 100%. This molecule gave a negative logarithm of the Ki (pKi) at Oxytocin receptor [3] of 6.95. For the same molecule, the pEC50 at Oxytocin receptor [2] is 7.83.
The corresponding values for `CC[C@H](C)[C@@H]1NC(=O)[C@H](Cc2ccc(O)cc2)NC(=O)[C@@H](NC)CSSC[C@@H](C(=O)N2CCC[C@H]2C(=O)N[C@@H](CC(C)C)C(=O)NCC(N)=O)N(C)C(=O)[C@H](CC(N)=O)NC(=O)[C@H](CCC(N)=O)NC1=O` are 81%, 7.01 and 6.76.
The corresponding values for `CC[C@H](C)[C@@H]1NC(=O)[C@H](Cc2ccc(O)cc2)NC(=O)[C@@H](N)CSSC[C@@H](C(=O)N2CCC[C@H]2C(=O)N(C)[C@@H](CC(C)C)C(=O)N(C)CC(N)=O)NC(=O)[C@H](CC(N)=O)NC(=O)[C@H](CCC(N)=O)NC1=O` are 96%, 7.97 and 8.26.
As to `CC[C@H](C)[C@@H]1NC(=O)[C@H](Cc2ccc(O)cc2)N(C)C(=O)[C@@H](N)CSSC[C@@H](C(=O)N2CCC[C@H]2C(=O)N[C@@H](CC(C)C)C(=O)NCC(N)=O)N(C)C(=O)[C@H](CC(N)=O)NC(=O)[C@H](CCC(N)=O)NC1=O`, the Intrinsic activity in experiment [1] is 78%. For the same molecule, the pEC50 at Oxytocin receptor [2] is 8.16.
`CC[C@H](C)[C@@H]1NC(=O)[C@H](Cc2ccc(O)cc2)N(C)C(=O)CCSSC[C@@H](C(=O)N2CCC[C@H]2C(=O)N[C@@H](CC(C)C)C(=O)NCC(N)=O)N(C)C(=O)[C@H](CC(N)=O)NC(=O)[C@H](CCC(N)=O)NC1=O`: the Intrinsic activity in experiment [1] is 97%. On Oxytocin receptor [2], the pEC50 was 8.10.
